Assay: Deodorant efficacy test: odour intensity of incubated axillary sweat rated by an expert panel
Set-up: species or system humaine
Conditions: 24 heures d'incubation à 37°C, versus control sweat without active, scale 0-4
Description: Des recueils de sueur axillaire sont effectués en sauna sur 6 volontaires, les échantillons de sueur individuelle, conservés dans la glace pendant quelques heures, sont alors pratiquement inodores. Ils sont ensuite mélangés et répartis en aliquots de 1 ml. Les actifs sont rajoutés à ces aliquots, puis mis à incuber à l'étuve 37°C. Après 24 heures d'incubation, un jury d'experts évalue l'intensité de l'odeur comparativement à un échantillon témoin : 1 ml de sueur incubée sans ajout d'actif. L'intensité est évaluée sur une échelle de 0 (pas d'odeur) à 4 (très forte odeur).
Les résultats sont exprimés en % de variation de l'intensité de l'odeur comparativement à cet échantillon de sueur témoin (moyenne des % de variation à T24h). Δ = ((intensité odeur de l'échantillon témoin−intensité odeur de l'échantillon avec actif))/(intensité odeur de l'échantillon témoin) × 100 [formula]

| Compound | % de diminution de l'intensité de l'odeur (0,1 mg MA/ml de sueur) [%] | other results |
| --- | --- | --- |
| Oc1cc(Cl)ccc1Oc1ccc(Cl)cc1Cl [(B), 2,4,4'-trichloro-2'-hydroxydiphényléther] | – | % de diminution de l'intensité de l'odeur (0,4 mg MA/ml de sueur): -49% |
| CCCCCC[C@@H](O)C/C=C\CCCCCCCC(=O)[O-].CCCCCC[C@@H](O)C/C=C\CCCCCCCC(=O)[O-].[Zn+2] [(C), Ricinoleate de zinc] | – | % de diminution de l'intensité de l'odeur (0,3 mg MA/ml de sueur): -4% |
| Aluminium chlorohydrate [ACH] | -35 | – |
| Salicylate de zinc [(A)] | -21 | – |

Source: patent EP1714638A1, “Cosmetic deodorant composition comprising a combination of zinc salicylate or a derivative thereof with an aluminium salt antiperspirant active” (L'ORÉAL, priority 2005, dated 2006)
